Test results as given in patent US11890285B2, “Combination therapies” (Mirati Therapeutics, Inc., priority 2019, dated 2024).
Several values for one entry are separate records, joined by “and”; a condition that tells them apart may be missing. Equal values may be shown once.

What was measured:
[1] = test system: CT26.WT KRas G12C E3 clone tumors; assay: Tumor volumes of CT26.WT KRas G12C E3 clone tumor bearing mice, single agents and combination; format: in vivo, BALBc mice
Description: (§1) BALBc mice were inoculated in the right hind flank with 1×10^6 CT26.WT KRas G12C E3 cells harboring the KRas G12C mutation, and tumor volumes were measured using a caliper every two-three days and tumor volumes were calculated by the formula: […].
(§2) When tumor volumes reached between 200-400 mm^3 in size (Study Day 0), the mice were divided into four groups of 5 mice each. The first group was daily administered vehicle (10% Captisol in 50 mM citrate buffer pH 5.0) through Study Day 15 and also administered i.p. vehicle (BioXcel diluent) on Study Days 1, 4 and 7. The second group was […] a 10 mg/kg i.p. dose of the murine anti-PD-1 antibody (F26, BioXcel) at Days 1, 4 and 7.
At Study Day 39, four tumor-free mice from the combination group were rechallenged 1×10^6 CT26.WT KRas G12C E3 cells in the opposite left flank and mice were monitored for tumor growth for a period of twenty four days to determine whether a durable, adaptive immune response was observed.

[2] = test system: CT26.WT KRas G12C E3 clone tumors; assay: Repeat study: tumor volumes of CT26.WT KRas G12C E3 clone tumor bearing mice, 10 animals per group; format: in vivo, BALBc mice; conditions: for Tumor volume: individual mice
Description: as §1
In the second study the number of treated mice was increased from 5 animals per group to 10 animals per group.
as §2, with “volumes reach” for “volumes reached”, “of 10” for “of 5”, “Day 10” for “Day 15”

Which “mice achieving a complete response” value ([1]; 5 mice per group) does the source give for C=C(F)C(=O)N1CCN(c2nc(OC[C@@H]3CCCN3C)nc3c2CCN(c2cccc4cccc(Cl)c24)C3)C[C@@H]1CC#N [Example 478] here?
Its value is “all five treated mice achieving a complete response after nine days of administration”.

And the “tumor regrowth / time without a detectable tumor” value ([1]; Example 478 stopped at Study Day 29)?
Its value is “eventually tumor growth was detected at the original site of implantation in all five mice”.

And the “mice achieving a complete response” value ([2]; 10 mice per group)?
Its value is “all ten treated mice achieving a complete response”.

What about the “tumor regrowth / time without a detectable tumor” value ([2]; Example 478 stopped at Study Day 25) of the same compound?
The value was “eventually tumor growth was detected in 6 out of 9 mice at the original site of implantation”.

What about the Tumor volume ([2]; Study Day 14, original implantation site (R), Example 478 100 mg/kg, F26 10 mg/kg i.p., listed as Example 47) of the same compound?
The Tumor volume was 0 mm^3 (9×) and 4 mm^3.

What about the Tumor volume ([2]; Study Day 17, original implantation site (R), Example 478 100 mg/kg, F26 10 mg/kg i.p., listed as Example 47) of the same compound?
The Tumor volume was 0 mm^3 (8×) and 32 mm^3.

And the Tumor volume ([2]; Study Day 19, original implantation site (R), Example 478 100 mg/kg, F26 10 mg/kg i.p., listed as Example 47)?
The Tumor volume was 51 mm^3 and 0 mm^3 (5×) and 875 mm^3 and 32 mm^3 and 371 mm^3 and 63 mm^3.

And the Tumor volume ([2]; Study Day 21, original implantation site (R), Example 478 100 mg/kg, F26 10 mg/kg i.p., listed as Example 47)?
Its Tumor volume is 268 mm^3 and 0 mm^3 (5×) and 1320 mm^3 and 139 mm^3 and 762 mm^3 and 274 mm^3.

And the Tumor volume ([2]; Study Day 24, original implantation site (R), Example 478 100 mg/kg, F26 10 mg/kg i.p., listed as Example 47)?
The Tumor volume was 877 mm^3 and 0 mm^3 (5×) and 2470 mm^3 and 588 mm^3 and 1498 mm^3 and 291 mm^3.

And the Tumor volume ([2]; Study Day 26, original implantation site (R), Example 478 100 mg/kg, F26 10 mg/kg i.p., listed as Example 47)?
The Tumor volume was 1237 mm^3 and 0 mm^3 (4×) and 923 mm^3 and 1699 mm^3 and 14 mm^3.

And the Tumor volume ([2]; Study Day 28, original implantation site (R), Example 478 100 mg/kg, F26 10 mg/kg i.p., listed as Example 47)?
Its Tumor volume is 1371 mm^3 and 0 mm^3 (4×) and 1056 mm^3 and 2035 mm^3 and 14 mm^3.

And the Tumor volume ([2]; Study Day 31, original implantation site (R), Example 478 100 mg/kg, F26 10 mg/kg i.p., listed as Example 47)?
The Tumor volume was 2334 mm^3 and 0R 0L mm^3 (4×) and 2113 mm^3 and 161 mm^3.

What about the Tumor volume ([2]; Study Day 31, site of re-challenge (L)) of the same compound?
Its Tumor volume is 0R 0L mm^3.

And the Tumor volume ([2]; Study Day 33, original implantation site (R), Example 478 100 mg/kg, F26 10 mg/kg i.p., listed as Example 47)?
The Tumor volume was 0R 0L mm^3 and 289 mm^3 and 63 mm^3 and 32 mm^3 and 4 mm^3.

And the Tumor volume ([2]; Study Day 33, site of re-challenge (L), listed as Example 47)?
Its Tumor volume is 0R 0L mm^3 and 0 mm^3 (3×).

And the Tumor volume ([2]; Study Day 38, original implantation site (R), Example 478 100 mg/kg, F26 10 mg/kg i.p., listed as Example 47)?
Its Tumor volume is 0R 0L mm^3 and 425 mm^3 and 318 mm^3 and 124 mm^3 and 63 mm^3.

What about the Tumor volume ([2]; Study Day 38, site of re-challenge (L), listed as Example 47) of the same compound?
The Tumor volume was 0R 0L mm^3 and 0 mm^3 (3×).

And the Tumor volume ([2]; Study Day 40, original implantation site (R), Example 478 100 mg/kg, F26 10 mg/kg i.p., listed as Example 47)?
Its Tumor volume is 0R 0L mm^3 and 464 mm^3 and 511 mm^3.

What about the Tumor volume ([2]; Study Day 40, site of re-challenge (L), listed as Example 47) of the same compound?
The Tumor volume was 0R 0L mm^3 and 0 mm^3 (2×).
